Test systems include KM20L2 colon; DLD-1 colon; SNB-78 CNS; DMS 273 small cell lung; MDA-MB-435; T-47D breast; DMS 114 small cell lung; MDA-N.
Common to all, as to assay: NCI tumour cell line growth inhibition, 48 h

Structures are written as SMILES. Where “and” joins values, the source holds several entries; their conditions need not be identical. Identical values can stand only once.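 Assay format: 96-well plates, 48-hour exposure. Abbreviation: GI50, concentration required for 50% inhibition of growth. Definition used: TGI = concentration required for complete inhibition of growth.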

`OCCCc1cnco1`: the TGI in the experiment with KM20L2 colon, with DLD-1 colon, with SNB-78 CNS and in the experiment on DMS 273 small cell lung was more than 100 µM throughout.

For `O=C(c1cccs1)c1nc2cc(Cl)ccc2[n+]([O-])c1C(F)(F)F`, in the experiment with MDA-MB-435, the GI50 was more than 100 µM and the TGI was more than 100 µM.

With `C#CCn1c(=O)c2cccnc2n(CC#C)c1=O`, the TGI in the experiment on DLD-1 colon, in the experiment on SNB-78 CNS and in the experiment on DMS 273 small cell lung was more than 100 µM throughout.

`COc1ncc(-c2ccc3nccc(C#CCN4CCN(S(C)(=O)=O)CC4)c3c2)cc1NS(=O)(=O)c1ccc(F)cc1F`: the GI50 in the experiment with MDA-MB-435 was 0.0915 µM; with T-47D breast it was less than 0.01 µM. Besides, the TGI in the experiment with MDA-MB-435 worked out at 1.26 µM; in the experiment with T-47D breast it was 0.0178 µM.

On to `C=C1C(=O)c2cc3c(cc2C(c2cc(OC)c(OC)c(OC)c2)[C@@H]1C(=O)O)OCO3` (stereo partly drawn), for which the TGI in the experiment on DMS 114 small cell lung, in the experiment on DLD-1 colon and in the experiment with SNB-78 CNS was more than 100 µM each time.

Consider `C=C(CN1CCN(c2ccccc2C(F)(F)F)CC1)c1ccc(C(=O)Nc2ccccc2N)cc1`, for which the GI50 in the experiment with MDA-MB-435 was 2.72 µM; in the experiment with T-47D breast, 7.67 µM. The TGI in the experiment on MDA-MB-435 is more than 22.6 µM; in the experiment on T-47D breast, more than 100 µM.

As for `COC(=O)[C@@H](C)C[C@H](Cc1ccccc1)NC(=O)c1csc([C@@H](C[C@H](C(C)C)N(C)C(=O)C2(NC(=O)[C@H]3CCCCN3C)CCC2)OC(C)=O)n1`, in the experiment on MDA-MB-435, the GI50 was 0.000325 µM and < 0.0025 µM; the TGI was 0.00179 µM and < 0.0025 µM.

Take `C/C(=N\O)c1cccc(Nc2cc(-c3ccccc3)nc3c(O)cccc23)c1`: in the experiment with MDA-MB-435, the GI50 is 0.271 µM and the TGI amounted to 2.01 µM. Also, in the experiment with T-47D breast, the GI50 was 2.36 µM and the TGI came out at 30.5 µM.

Consider `O=C(Nc1ccc(I)cc1)c1cccc([N+](=O)[O-])c1O`, for which, in the experiment with MDA-MB-435, the GI50 was 3.07 µM and the TGI is more than 100 µM. In the experiment with T-47D breast, the GI50 was 2.98 µM and the TGI was determined as 12.6 µM.

Consider `C=C1C(=O)OC2CC1C(OC(C)=O)C/C(C)=C/CC/C(C)=C\CCC2(C)O` (stereo not drawn), for which the TGI in the experiment on MDA-N was 15.9 µM and 12.3 µM; in the experiment with MDA-MB-435, 18.6 µM; in the experiment on T-47D breast, 14.6 µM and 62.7 µM.

Turning to `O=Cc1ccc(-c2ccc(-c3ccc(C=O)o3)[se]2)o1`, in the experiment on MDA-MB-435, the GI50 is more than 100 µM and the TGI is more than 100 µM. For the same compound, in the experiment on T-47D breast, the GI50 is more than 100 µM and the TGI was more than 100 µM.

For `O=C1C=CC(=O)N1c1ccc(I)cc1`, the TGI with MDA-N is 30.1 µM; with MDA-MB-435, 34.7 µM; in the experiment with T-47D breast it was 72.3 µM.

`FC(F)(F)c1ccc(-c2ncc(-c3ccc(C(F)(F)F)cc3)c(NCc3cc(C(F)(F)F)cc(C(F)(F)F)c3)n2)cc1`: the figures for the GI50 in the experiment on MDA-MB-435 and in the experiment with T-47D breast were 4.23 µM and 3.12 µM, respectively. The TGI in the experiment with MDA-MB-435 was more than 100 µM; with T-47D breast, 29 µM.

Regarding `O=C(O)c1ccc(Oc2nc3ccccc3s2)cc1`, the TGI in the experiment with MDA-MB-435 and in the experiment on T-47D breast was more than 100 µM throughout.

Turning to `COc1cc(/C=C/C(=O)c2c(C)nc3ccccc3c2C)ccc1OCCCCOc1cc2c(cc1OC)C(=O)N1CCC[C@H]1C=N2`, the GI50 in the experiment on MDA-MB-435 is 0.274 µM; in the experiment with T-47D breast it was 0.333 µM. Further, the values for the TGI in the experiment on MDA-MB-435 and in the experiment on T-47D breast were 0.873 µM and 1.36 µM, respectively.

`c1ccc(-c2cn(-c3ccccc3)c(-c3ccccc3)n2)cc1`: in the experiment with MDA-MB-435, the GI50 is 7.58 µM and the TGI worked out at 24.7 µM. Besides, in the experiment on T-47D breast, the GI50 was 9.3 µM and the TGI was found to be 26.2 µM.

With `COC(=O)c1nc(C(=O)OC)c2c([nH]c3ccccc32)c1C(=O)OC`, the TGI in the experiment with DMS 114 small cell lung, with DLD-1 colon, in the experiment with SNB-78 CNS and with DMS 273 small cell lung was more than 100 µM throughout.

For `Cc1cc(=O)oc2cc(OC(=O)Nc3ccccc3)ccc12`, the TGI with MDA-N, in the experiment on MDA-MB-435 and in the experiment on T-47D breast was more than 100 µM in each case.

With `NC1=NC2=C(CCCC2)C(c2cccs2)S1` (stereo not drawn), the TGI with DMS 114 small cell lung, in the experiment with KM20L2 colon, in the experiment with SNB-78 CNS and in the experiment with DMS 273 small cell lung was more than 100 µM throughout.

In the case of `N#Cc1c(-c2ccccc2)cc(-c2cccs2)c(C#N)c1N`, the TGI in the experiment on KM20L2 colon, with DLD-1 colon, in the experiment with SNB-78 CNS and in the experiment with DMS 273 small cell lung was more than 100 µM each time.

As for `C/C(=N/NC(=S)N1CC2CCC(CC2)C1)c1cnccn1`, the results for the TGI in the experiment with MDA-N, with MDA-MB-435 and in the experiment with T-47D breast were 28.7 µM, 16.4 µM and 13.3 µM, respectively.

As for `COc1cc2c(cc1OCCCCn1c(-c3cccs3)nc3ccccc31)N=C[C@@H]1CCCN1C2=O`, the GI50 in the experiment with MDA-MB-435 was 1.39 µM; in the experiment with T-47D breast, 0.503 µM. Besides, the TGI with MDA-MB-435 was found to be 3.75 µM; in the experiment with T-47D breast, 3.65 µM.

Consider `NC(=O)CCc1ccccc1Oc1nccc(-c2c(-c3ccc(F)cc3)ncn2C2CCNCC2)n1`, for which, in the experiment on MDA-MB-435, the GI50 was more than 25 µM and the TGI is more than 25 µM. Besides, in the experiment with T-47D breast, the GI50 was more than 25 µM and the TGI was more than 25 µM.

With `CC1(C)OC2C(CO)OC(n3ccc(N)nc3=O)C2O1` (stereo not drawn), the TGI with MDA-N, in the experiment on MDA-MB-435 and in the experiment with T-47D breast was more than 100 µM each time.

For `CCCCN(CC)CCCCCCCCCCN1CCCc2cc(OC)ccc21`, the GI50 in the experiment on MDA-MB-435 is 2.41 µM; with T-47D breast it was 2.11 µM. The figures for the TGI in the experiment with MDA-MB-435 and in the experiment on T-47D breast were 7.06 µM and 5.83 µM, respectively.

As for `O=c1[nH]c(F)nc2c1ncn2C1OC(CO)C(O)C1O` (stereo not drawn), the GI50 in the experiment on MDA-MB-435 and in the experiment on T-47D breast was more than 100 µM each time. Further, the TGI in the experiment with MDA-MB-435 and in the experiment on T-47D breast was more than 100 µM throughout.

As for `Cc1ccc(NC(=O)c2nc(S(C)(=O)=O)oc2-c2ccc(F)cc2)cc1Nc1ccc2ncn(C)c(=O)c2c1`, in the experiment on MDA-MB-435, the GI50 was 2.48 µM and the TGI came out at 7.28 µM.

The record behind these values is PubChem BioAssay (NCI).
